In paper PMC6591251, “Discovery of potent necroptosis inhibitors targeting RIPK1 kinase activity for the treatment of inflammatory disorder and cancer metastasis” (Cell Death & Disease, 2019):

How the values were obtained:
Assay in all cases: RBC kinase panel
Type in all cases: biochemical
ABL2/ARG = molecular target: T1, ABL2/ARG (Homo sapiens, UniProt P42684); settings: ATP 10 μM, Data1, Data2
T1 construct: purchased Reaction Biology Corporation
How it was run: (§1)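 1 μM inhibitor; n = 2; ATP 10 μM; broad panel of 369 human kinases.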

AKT3 = molecular target: T2, AKT3 (Homo sapiens, UniProt Q9Y243); settings: ATP 10 μM, Data1, Data2
T2 construct: purchased Reaction Biology Corporation
How it was run: as §1

ALK = molecular target: T3, ALK (Homo sapiens, UniProt Q9UM73); settings: ATP 10 μM, Data1, Data2
T3 construct: purchased Reaction Biology Corporation
How it was run: as §1

CAMK4 = molecular target: T4, CAMK4 (Homo sapiens, UniProt Q16566); settings: ATP 10 μM, Data1, Data2
T4 construct: purchased Reaction Biology Corporation
How it was run: as §1

CDK5/p25 = molecular target: T5, CDK5/p25 (Homo sapiens, UniProt Q00535); settings: ATP 10 μM, Data1, Data2
T5 construct: purchased Reaction Biology Corporation
How it was run: as §1

CK1a1L = molecular target: T6, CK1a1L (Homo sapiens, UniProt Q8N752); settings: ATP 10 μM, Data1, Data2
T6 construct: purchased Reaction Biology Corporation
How it was run: as §1

CK2a = molecular target: T7, CK2a (Homo sapiens, UniProt P68400); settings: ATP 10 μM, Data1, Data2
T7 construct: purchased Reaction Biology Corporation
How it was run: as §1

CLK3 = molecular target: T8, CLK3 (Homo sapiens, UniProt P49761); settings: ATP 10 μM, Data1, Data2
T8 construct: purchased Reaction Biology Corporation
How it was run: as §1

CTK/MATK = molecular target: T9, CTK/MATK (Homo sapiens, UniProt P42679); settings: ATP 10 μM, Data1, Data2
T9 construct: purchased Reaction Biology Corporation
How it was run: as §1

DMPK2 = molecular target: T10, DMPK2 (Homo sapiens, UniProt Q6DT37); settings: ATP 10 μM, Data1, Data2
T10 construct: purchased Reaction Biology Corporation
How it was run: as §1

EGFR = molecular target: T11, EGFR (Homo sapiens, UniProt P00533); settings: ATP 10 μM, Data1, Data2
T11 construct: purchased Reaction Biology Corporation
How it was run: as §1

EPHA1 = molecular target: T12, EPHA1 (Homo sapiens, UniProt P21709); settings: ATP 10 μM, Data1, Data2
T12 construct: purchased Reaction Biology Corporation
How it was run: as §1

FLT3 = molecular target: T13, FLT3 (Homo sapiens, UniProt P36888); settings: ATP 10 μM, Data1, Data2
T13 construct: purchased Reaction Biology Corporation
How it was run: as §1

FLT4/VEGFR3 = molecular target: T14, FLT4/VEGFR3 (Homo sapiens, UniProt P35916); settings: ATP 10 μM, Data1, Data2
T14 construct: purchased Reaction Biology Corporation
How it was run: as §1

GSK3b = molecular target: T15, GSK3b (Homo sapiens, UniProt P49841); settings: ATP 10 μM, Data1, Data2
T15 construct: purchased Reaction Biology Corporation
How it was run: as §1

HIPK2 = molecular target: T16, HIPK2 (Homo sapiens, UniProt Q9H2X6); settings: ATP 10 μM, Data1, Data2
T16 construct: purchased Reaction Biology Corporation
How it was run: as §1

HPK1/MAP4K1 = molecular target: T17, HPK1/MAP4K1 (Homo sapiens, UniProt Q92918); settings: ATP 10 μM, Data1, Data2
T17 construct: purchased Reaction Biology Corporation
How it was run: as §1

IRAK4 = molecular target: T18, IRAK4 (Homo sapiens, UniProt Q9NWZ3); settings: ATP 10 μM, Data1, Data2
T18 construct: purchased Reaction Biology Corporation
How it was run: as §1

IRR/INSRR = molecular target: T19, IRR/INSRR (Homo sapiens, UniProt P14616); settings: ATP 10 μM, Data1, Data2
T19 construct: purchased Reaction Biology Corporation
How it was run: as §1

MSK2/RPS6KA4 = molecular target: T20, MSK2/RPS6KA4 (Homo sapiens, UniProt O75676); settings: ATP 10 μM, Data1, Data2
T20 construct: purchased Reaction Biology Corporation
How it was run: as §1

MST4 = molecular target: T21, MST4 (Homo sapiens, UniProt Q9P289); settings: ATP 10 μM, Data1, Data2
T21 construct: purchased Reaction Biology Corporation
How it was run: as §1

MYO3A = molecular target: T22, MYO3A (Homo sapiens, UniProt Q8NEV4); settings: ATP 10 μM, Data1, Data2
T22 construct: purchased Reaction Biology Corporation
How it was run: as §1

NEK7 = molecular target: T23, NEK7 (Homo sapiens, UniProt Q8TDX7); settings: ATP 10 μM, Data1, Data2
T23 construct: purchased Reaction Biology Corporation
How it was run: as §1

PKN3/PRK3 = molecular target: T24, PKN3/PRK3 (Homo sapiens, UniProt Q6P5Z2); settings: ATP 10 μM, Data1, Data2
T24 construct: purchased Reaction Biology Corporation
How it was run: as §1

PLK3 = molecular target: T25, PLK3 (Homo sapiens, UniProt Q9H4B4); settings: ATP 10 μM, Data1, Data2
T25 construct: purchased Reaction Biology Corporation
How it was run: as §1

ROS/ROS1 = molecular target: T26, ROS/ROS1 (Homo sapiens, UniProt P08922); settings: ATP 10 μM, Data1, Data2
T26 construct: purchased Reaction Biology Corporation
How it was run: as §1

SGK3/SGKL = molecular target: T27, SGK3/SGKL (Homo sapiens, UniProt Q96BR1); settings: ATP 10 μM, Data1, Data2
T27 construct: purchased Reaction Biology Corporation
How it was run: as §1

STK38/NDR1 = molecular target: T28, STK38/NDR1 (Homo sapiens, UniProt Q15208); settings: ATP 10 μM, Data1, Data2
T28 construct: purchased Reaction Biology Corporation
How it was run: as §1

TAOK2/TAO1 = molecular target: T29, TAOK2/TAO1 (Homo sapiens, UniProt Q9UL54); settings: ATP 10 μM, Data1, Data2
T29 construct: purchased Reaction Biology Corporation
How it was run: as §1

TRKC = molecular target: T30, TRKC (Homo sapiens, UniProt Q16288)
T30 construct: purchased Reaction Biology Corporation
How it was run: as §1

ZIPK/DAPK3 = molecular target: T31, ZIPK/DAPK3 (Homo sapiens, UniProt O43293); settings: ATP 10 μM, Data1, Data2
T31 construct: purchased Reaction Biology Corporation
How it was run: as §1

c-MET = molecular target: T32, c-MET (Homo sapiens, UniProt P08581); settings: ATP 10 μM, Data1, Data2
T32 construct: purchased Reaction Biology Corporation
How it was run: as §1

p70S6K/RPS6KB1 = molecular target: T33, p70S6K/RPS6KB1 (Homo sapiens, UniProt P23443); settings: ATP 10 μM, Data1, Data2
T33 construct: purchased Reaction Biology Corporation
How it was run: as §1

T30 sequence (Q16288 32-839): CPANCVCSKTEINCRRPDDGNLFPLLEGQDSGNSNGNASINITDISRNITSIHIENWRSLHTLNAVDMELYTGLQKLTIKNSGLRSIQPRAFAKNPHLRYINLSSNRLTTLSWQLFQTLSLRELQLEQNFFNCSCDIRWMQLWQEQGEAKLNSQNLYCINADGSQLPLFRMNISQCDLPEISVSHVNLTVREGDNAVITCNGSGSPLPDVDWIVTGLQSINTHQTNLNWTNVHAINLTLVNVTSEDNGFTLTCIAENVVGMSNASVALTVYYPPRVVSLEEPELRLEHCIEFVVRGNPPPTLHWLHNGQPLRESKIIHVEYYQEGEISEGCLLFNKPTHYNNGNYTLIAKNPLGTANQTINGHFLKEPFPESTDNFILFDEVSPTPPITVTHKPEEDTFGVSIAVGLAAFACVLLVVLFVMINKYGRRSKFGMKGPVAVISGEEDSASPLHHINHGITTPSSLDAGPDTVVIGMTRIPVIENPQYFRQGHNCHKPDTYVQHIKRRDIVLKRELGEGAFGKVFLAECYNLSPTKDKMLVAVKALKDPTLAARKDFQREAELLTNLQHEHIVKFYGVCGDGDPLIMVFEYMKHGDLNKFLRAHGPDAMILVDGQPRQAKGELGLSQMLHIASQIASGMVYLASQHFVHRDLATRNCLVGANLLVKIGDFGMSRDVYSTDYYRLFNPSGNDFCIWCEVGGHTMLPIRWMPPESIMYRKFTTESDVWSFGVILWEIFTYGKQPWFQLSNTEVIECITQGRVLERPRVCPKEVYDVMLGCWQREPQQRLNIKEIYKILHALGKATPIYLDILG
T20 sequence (O75676 whole entry): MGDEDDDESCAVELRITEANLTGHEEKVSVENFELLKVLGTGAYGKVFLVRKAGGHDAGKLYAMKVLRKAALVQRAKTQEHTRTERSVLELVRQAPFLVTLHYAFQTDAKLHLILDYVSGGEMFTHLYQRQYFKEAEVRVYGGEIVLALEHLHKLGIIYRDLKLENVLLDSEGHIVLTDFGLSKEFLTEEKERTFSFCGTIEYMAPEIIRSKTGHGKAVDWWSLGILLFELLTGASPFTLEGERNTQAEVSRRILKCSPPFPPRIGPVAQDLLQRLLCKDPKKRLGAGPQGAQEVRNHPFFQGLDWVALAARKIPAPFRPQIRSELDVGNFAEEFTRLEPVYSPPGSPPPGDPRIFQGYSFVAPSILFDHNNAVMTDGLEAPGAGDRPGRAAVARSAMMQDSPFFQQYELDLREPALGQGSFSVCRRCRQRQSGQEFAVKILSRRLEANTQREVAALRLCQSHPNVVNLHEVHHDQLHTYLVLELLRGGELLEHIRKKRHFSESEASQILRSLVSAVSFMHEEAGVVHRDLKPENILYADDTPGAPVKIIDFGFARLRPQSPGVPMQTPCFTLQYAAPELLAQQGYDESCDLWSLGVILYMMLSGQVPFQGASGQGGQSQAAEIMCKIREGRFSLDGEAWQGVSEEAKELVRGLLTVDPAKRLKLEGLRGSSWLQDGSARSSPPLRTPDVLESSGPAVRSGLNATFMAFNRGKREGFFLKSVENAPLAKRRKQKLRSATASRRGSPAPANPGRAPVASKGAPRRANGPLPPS
T3 sequence (Q9UM73 19-1620): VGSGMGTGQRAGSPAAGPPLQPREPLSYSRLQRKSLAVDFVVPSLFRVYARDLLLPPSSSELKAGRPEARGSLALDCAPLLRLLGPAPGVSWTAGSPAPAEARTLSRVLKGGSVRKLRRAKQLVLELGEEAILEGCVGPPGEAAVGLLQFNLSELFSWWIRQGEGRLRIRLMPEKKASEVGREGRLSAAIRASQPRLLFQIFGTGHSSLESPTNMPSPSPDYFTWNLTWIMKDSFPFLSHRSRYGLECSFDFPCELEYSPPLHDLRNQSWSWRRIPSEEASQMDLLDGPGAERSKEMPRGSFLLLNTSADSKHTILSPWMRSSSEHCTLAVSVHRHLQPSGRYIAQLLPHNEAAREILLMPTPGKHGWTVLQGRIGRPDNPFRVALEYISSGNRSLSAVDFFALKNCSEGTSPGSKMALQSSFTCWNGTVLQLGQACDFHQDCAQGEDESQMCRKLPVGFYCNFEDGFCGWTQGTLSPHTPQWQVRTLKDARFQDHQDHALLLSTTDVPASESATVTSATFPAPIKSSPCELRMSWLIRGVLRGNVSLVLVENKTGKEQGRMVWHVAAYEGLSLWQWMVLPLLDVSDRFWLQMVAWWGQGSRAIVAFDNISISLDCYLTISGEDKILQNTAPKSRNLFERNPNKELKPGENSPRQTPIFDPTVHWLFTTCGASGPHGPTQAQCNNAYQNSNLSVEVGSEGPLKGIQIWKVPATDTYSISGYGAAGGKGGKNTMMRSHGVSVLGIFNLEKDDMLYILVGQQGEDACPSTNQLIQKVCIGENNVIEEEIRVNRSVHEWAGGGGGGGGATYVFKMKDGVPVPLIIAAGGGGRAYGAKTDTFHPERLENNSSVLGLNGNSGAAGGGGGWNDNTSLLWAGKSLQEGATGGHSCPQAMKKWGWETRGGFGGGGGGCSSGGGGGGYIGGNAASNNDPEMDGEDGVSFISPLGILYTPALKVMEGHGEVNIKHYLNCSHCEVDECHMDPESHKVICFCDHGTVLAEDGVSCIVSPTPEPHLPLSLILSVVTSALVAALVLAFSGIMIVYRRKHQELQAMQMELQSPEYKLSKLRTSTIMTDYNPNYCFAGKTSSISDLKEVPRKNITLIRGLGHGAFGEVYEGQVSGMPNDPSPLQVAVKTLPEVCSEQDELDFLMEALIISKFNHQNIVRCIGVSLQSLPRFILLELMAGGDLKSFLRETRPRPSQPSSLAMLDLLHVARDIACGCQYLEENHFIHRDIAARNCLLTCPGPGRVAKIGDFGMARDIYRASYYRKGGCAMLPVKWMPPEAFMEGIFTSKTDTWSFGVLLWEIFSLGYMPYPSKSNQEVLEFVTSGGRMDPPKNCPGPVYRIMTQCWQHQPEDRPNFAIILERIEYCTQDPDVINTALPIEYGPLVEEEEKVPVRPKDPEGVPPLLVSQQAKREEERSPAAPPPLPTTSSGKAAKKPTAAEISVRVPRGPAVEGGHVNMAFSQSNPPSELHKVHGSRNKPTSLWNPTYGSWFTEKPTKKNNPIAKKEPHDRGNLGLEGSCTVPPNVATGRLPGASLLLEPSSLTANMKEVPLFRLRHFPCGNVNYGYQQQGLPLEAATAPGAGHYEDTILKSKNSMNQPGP
T27 sequence (Q96BR1 whole entry): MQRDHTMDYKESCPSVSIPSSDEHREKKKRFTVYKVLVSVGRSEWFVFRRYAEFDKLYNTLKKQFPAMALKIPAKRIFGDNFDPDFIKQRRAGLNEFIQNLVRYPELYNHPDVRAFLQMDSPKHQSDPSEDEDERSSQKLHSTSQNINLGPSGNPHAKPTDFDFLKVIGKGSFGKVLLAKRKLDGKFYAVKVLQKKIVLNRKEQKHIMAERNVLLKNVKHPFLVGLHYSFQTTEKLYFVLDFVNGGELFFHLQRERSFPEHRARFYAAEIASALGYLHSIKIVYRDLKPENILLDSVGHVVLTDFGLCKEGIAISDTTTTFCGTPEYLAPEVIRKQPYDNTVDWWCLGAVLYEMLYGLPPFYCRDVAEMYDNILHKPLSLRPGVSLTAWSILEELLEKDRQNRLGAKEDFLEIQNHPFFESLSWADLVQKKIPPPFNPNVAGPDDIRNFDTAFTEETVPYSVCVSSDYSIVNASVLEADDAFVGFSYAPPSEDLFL
T19 sequence (P14616 27-1297): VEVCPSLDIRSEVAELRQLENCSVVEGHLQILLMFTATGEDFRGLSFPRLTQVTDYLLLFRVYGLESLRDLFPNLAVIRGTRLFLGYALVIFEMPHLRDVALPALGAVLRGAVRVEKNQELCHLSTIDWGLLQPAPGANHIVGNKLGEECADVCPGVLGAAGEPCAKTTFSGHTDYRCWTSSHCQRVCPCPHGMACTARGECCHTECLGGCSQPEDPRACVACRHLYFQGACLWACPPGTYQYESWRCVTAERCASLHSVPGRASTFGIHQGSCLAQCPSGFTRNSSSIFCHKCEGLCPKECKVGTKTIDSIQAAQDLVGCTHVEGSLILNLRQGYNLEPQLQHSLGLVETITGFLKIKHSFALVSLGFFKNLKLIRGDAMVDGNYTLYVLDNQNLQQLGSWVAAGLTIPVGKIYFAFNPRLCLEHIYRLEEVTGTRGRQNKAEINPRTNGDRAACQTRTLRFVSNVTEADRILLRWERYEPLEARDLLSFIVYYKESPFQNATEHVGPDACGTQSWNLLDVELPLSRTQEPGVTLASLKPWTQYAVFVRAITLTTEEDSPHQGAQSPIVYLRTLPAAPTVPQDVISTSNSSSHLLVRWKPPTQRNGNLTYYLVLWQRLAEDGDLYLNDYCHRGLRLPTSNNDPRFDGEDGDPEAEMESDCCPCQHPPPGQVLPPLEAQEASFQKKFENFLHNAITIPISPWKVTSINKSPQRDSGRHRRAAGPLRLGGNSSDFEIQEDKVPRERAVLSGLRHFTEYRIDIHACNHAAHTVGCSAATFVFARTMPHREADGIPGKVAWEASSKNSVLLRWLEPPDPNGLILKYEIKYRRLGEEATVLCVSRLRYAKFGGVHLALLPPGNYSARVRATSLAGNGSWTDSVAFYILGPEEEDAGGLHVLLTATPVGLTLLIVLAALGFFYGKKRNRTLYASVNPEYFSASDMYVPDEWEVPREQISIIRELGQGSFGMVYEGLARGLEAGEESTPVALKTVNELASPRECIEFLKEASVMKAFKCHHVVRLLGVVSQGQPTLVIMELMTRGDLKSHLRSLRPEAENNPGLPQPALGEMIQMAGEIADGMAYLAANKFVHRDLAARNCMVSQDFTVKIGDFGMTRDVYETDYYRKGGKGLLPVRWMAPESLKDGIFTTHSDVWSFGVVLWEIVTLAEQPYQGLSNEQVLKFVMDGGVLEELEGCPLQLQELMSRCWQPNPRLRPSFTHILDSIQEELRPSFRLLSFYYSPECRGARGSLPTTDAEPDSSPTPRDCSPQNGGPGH

## CC(=O)Nc1nc2ccc(-c3cnc(C)c(NC(=O)OC4CCCCC4)c3)cc2s1 [PK68, cyclohexyl (5-(2-acetamidobenzo[d]thiazol-6-yl)-2-methylpyridin-3-yl)carbamate]
ABL2/ARG; 1 μM
  Activity%: 91.15%
ABL2/ARG
  activity at 1 µM: 91.9%
AKT3; 1 μM
  Activity%: 98.71%
AKT3
  activity at 1 µM: 100%
ALK; 1 μM
  Activity%: 94.03%
ALK
  activity at 1 µM: 96.1%
CAMK4; 1 μM
  Activity%: 84.49%
CAMK4
  activity at 1 µM: 84.8%
CDK5/p25; 1 μM
  Activity%: 92.68%
CDK5/p25
  activity at 1 µM: 94.1%
CK1a1L; 1 μM
  Activity%: 103.24%
CK1a1L
  activity at 1 µM: 106%
CK2a; 1 μM
  Activity%: 90.49%
CK2a
  activity at 1 µM: 95.2%
CLK3; 1 μM
  Activity%: 99.85%
CLK3
  activity at 1 µM: 101%
CTK/MATK; 1 μM
  Activity%: 93.51%
CTK/MATK
  activity at 1 µM: 93.8%
DMPK2; 1 μM
  Activity%: 96.42%
DMPK2
  activity at 1 µM: 98.3%
EGFR; 1 μM
  Activity%: 99.30%
EGFR
  activity at 1 µM: 99.7%
EPHA1; 1 μM
  Activity%: 100.48%
EPHA1
  activity at 1 µM: 101%
FLT3; 1 μM
  Activity%: 57.70%
FLT3
  activity at 1 µM: 58%
FLT4/VEGFR3; 1 μM
  Activity%: 90.37%
FLT4/VEGFR3
  activity at 1 µM: 91%
GSK3b; 1 μM
  Activity%: 97.24%
GSK3b
  activity at 1 µM: 98.1%
HIPK2; 1 μM
  Activity%: 110.22%
HIPK2
  activity at 1 µM: 111%
HPK1/MAP4K1; 1 μM
  Activity%: 98.32%
HPK1/MAP4K1
  activity at 1 µM: 101%
IRAK4; 1 μM
  Activity%: 85.85%
IRAK4
  activity at 1 µM: 86.9%
IRR/INSRR; 1 μM
  Activity%: 96.94%
IRR/INSRR
  activity at 1 µM: 98%
MSK2/RPS6KA4; 1 μM
  Activity%: 106.42%
MSK2/RPS6KA4
  activity at 1 µM: 107%
MST4; 1 μM
  Activity%: 101.18%
MST4
  activity at 1 µM: 102%
MYO3A; 1 μM
  Activity%: 91.22%
MYO3A
  activity at 1 µM: 92.2%
NEK7; 1 μM
  Activity%: 103.37%
NEK7
  activity at 1 µM: 105%
PKN3/PRK3; 1 μM
  Activity%: 92.58%
PKN3/PRK3
  activity at 1 µM: 94.1%
PLK3; 1 μM
  Activity%: 104.01%
PLK3
  activity at 1 µM: 105%
ROS/ROS1; 1 μM
  Activity%: 88.56%
ROS/ROS1
  activity at 1 µM: 88.9%
SGK3/SGKL; 1 μM
  Activity%: 99.59%
SGK3/SGKL
  activity at 1 µM: 102%
STK38/NDR1; 1 μM
  Activity%: 96.05%
STK38/NDR1
  activity at 1 µM: 98.9%
TAOK2/TAO1; 1 μM
  Activity%: 81.88%
TAOK2/TAO1
  activity at 1 µM: 82.6%
TRKC; 1 μM, ATP 10 μM, Data1, Data2
  Activity%: 33.96%
  activity at 1 µM: 35.4%
TRKC; at 1000 nM
  inhibition at 1 µM: > 50%
ZIPK/DAPK3; 1 μM
  Activity%: 98.55%
ZIPK/DAPK3
  activity at 1 µM: 100%
c-MET; 1 μM
  Activity%: 101.99%
c-MET
  activity at 1 µM: 102%
p70S6K/RPS6KB1; 1 μM
  Activity%: 101.85%
p70S6K/RPS6KB1
  activity at 1 µM: 102%
